Results from ChEMBL document CHEMBL1806455, “Synthesis, activity and pharmacokinetics of novel antibacterial 15-membered ring macrolones” (Eur J Med Chem, 2011).
Values after ≈ are worked out from the molar mass of the structure shown.

Columns and labels:
Type in all cases: functional
Staphylococcus aureus [1] = assay: Antibacterial activity against erythromycin-sensitive Staphylococcus aureus ATCC 13709 by broth microdilution method
Streptococcus pneumoniae [2] = assay: Antibacterial activity against erythromycin-sensitive Streptococcus pneumoniae SP030 by broth microdilution method
Streptococcus pyogenes [3] = assay: Antibacterial activity against erythromycin-sensitive Streptococcus pyogenes 3565 by broth microdilution method
Staphylococcus aureus [4] = assay: Antibacterial activity against efflux-mediated macrolide-resistant Staphylococcus aureus PK1 by broth microdilution method
Streptococcus pneumoniae [5] = assay: Antibacterial activity against efflux-mediated macrolide-resistant Streptococcus pneumoniae Ci137 by broth microdilution method
Streptococcus pyogenes [6] = assay: Antibacterial activity against efflux-mediated macrolide-resistance Streptococcus pyogenes 2 Finland by broth microdilution method
Staphylococcus aureus [7] = assay: Antibacterial activity against inducible macrolide-lincosamide-streptogramin B resistant Staphylococcus aureus 90256 by broth microdilution method
Streptococcus pneumoniae [8] = assay: Antibacterial activity against inducible macrolide-resistant, constitutive lincosamide, streptogramin-resistant Streptococcus pneumoniae 134 GR M by broth microdilution method
Streptococcus pyogenes [9] = assay: Antibacterial activity against inducible macrolide-lincosamide-streptogramin B resistant Streptococcus pyogenes Finland 11 by broth microdilution method
Staphylococcus aureus [10] = assay: Antibacterial activity against constitutive macrolide, lincosamide, streptogramin-resistant Staphylococcus aureus PK2 by broth microdilution method
Streptococcus pneumoniae [11] = assay: Antibacterial activity against constitutive macrolide, lincosamide, streptogramin-resistant Streptococcus pneumoniae 58 spain by broth microdilution method
Streptococcus pyogenes [12] = assay: Antibacterial activity against macrolide, lincosamide, streptogramin-resistant Streptococcus pyogenes 166 GR-Micro by broth microdilution method
Haemophilus influenzae = assay: Antibacterial activity against Haemophilus influenzae ATCC 49247 by broth microdilution method
Moraxella catarrhalis = assay: Antibacterial activity against Moraxella catarrhalis ATCC 23246 by broth microdilution method

| SMILES | MIC (Staphylococcus aureus [1]) [µg/mL] | MIC (Streptococcus pneumoniae [2]) [µg/mL] | MIC (Streptococcus pyogenes [3]) [µg/mL] | MIC (Staphylococcus aureus [4]) [µg/mL] | MIC (Streptococcus pneumoniae [5]) [µg/mL] | MIC (Streptococcus pyogenes [6]) [µg/mL] | MIC (Staphylococcus aureus [7]) [µg/mL] | MIC (Streptococcus pneumoniae [8]) [µg/mL] | MIC (Streptococcus pyogenes [9]) [µg/mL] | MIC (Staphylococcus aureus [10]) [µg/mL] | MIC (Streptococcus pneumoniae [11]) [µg/mL] | MIC (Streptococcus pyogenes [12]) [µg/mL] | MIC (Haemophilus influenzae) [µg/mL] | MIC (Moraxella catarrhalis) [µg/mL] |
| --- | --- | --- | --- | --- | --- | --- | --- | --- | --- | --- | --- | --- | --- | --- |
| CC[C@H]1OC(=O)[C@H](C)[C@@H](O[C@H]2C[C@@](C)(OC)[C@@H](OC(=O)CCOCCNc3cc4c(=O)c(C(=O)OCOC(=O)C(C)(C)C)cn(C5CC5)c4cc3Cl)[C@H](C)O2)[C@H](C)[C@@H](O[C@@H]2O[C@H](C)C[C@H](N(C)C)[C@H]2O)[C@](C)(O)C[C@@H](C)CN(C)[C@H](C)[C@@H](O)[C@]1(C)O | 1 (≈ 0.806 µM) | ≤ 0.125 | ≤ 0.125 | 2 (≈ 1.61 µM) | ≤ 0.125 | ≤ 0.125 | 4 (≈ 3.23 µM) | ≤ 0.125 | ≤ 0.125 | > 64 | 0.5 (≈ 0.403 µM) | ≤ 0.125 | 1 (≈ 0.806 µM) | 2 (≈ 1.61 µM) |
| CC[C@H]1OC(=O)[C@H](C)[C@@H](O[C@H]2C[C@@](C)(OC)[C@@H](OC(=O)CCOCCOc3ccc4c(c3)c(=O)c(C(=O)O)cn4C3CC3)[C@H](C)O2)[C@H](C)[C@@H](O[C@@H]2O[C@H](C)C[C@H](N(C)C)[C@H]2O)[C@](C)(O)C[C@@H](C)CN(C)[C@H](C)[C@@H](O)[C@]1(C)O | ≤ 0.125 | ≤ 0.125 | ≤ 0.125 | 0.25 (≈ 0.229 µM) | ≤ 0.125 | ≤ 0.125 | 1 (≈ 0.915 µM) | ≤ 0.125 | ≤ 0.125 | 32 (≈ 29.3 µM) | ≤ 0.125 | 0.25 (≈ 0.229 µM) | 0.5 (≈ 0.458 µM) | 0.5 (≈ 0.458 µM) |
| CC[C@H]1OC(=O)[C@H](C)[C@@H](O[C@H]2C[C@@](C)(OC)[C@@H](OC(=O)CCOCCNc3ccc4c(c3)c(=O)c(C(=O)OCCN3CCCCC3)cn4C3CC3)[C@H](C)O2)[C@H](C)[C@@H](O[C@@H]2O[C@H](C)C[C@H](N(C)C)[C@H]2O)[C@](C)(O)C[C@@H](C)CN(C)[C@H](C)[C@@H](O)[C@]1(C)O | 0.25 (≈ 0.208 µM) | ≤ 0.125 | ≤ 0.125 | 1 (≈ 0.832 µM) | ≤ 0.125 | ≤ 0.125 | 4 (≈ 3.33 µM) | ≤ 0.125 | ≤ 0.125 | > 64 | ≤ 0.125 | ≤ 0.125 | 8 (≈ 6.65 µM) | 1 (≈ 0.832 µM) |
| CC[C@H]1OC(=O)[C@H](C)[C@@H](O[C@H]2C[C@@](C)(OC)[C@@H](OC(=O)CCOCCNc3cc4c(=O)c(C(=O)OCOCCOC)cn(C5CC5)c4cc3Cl)[C@H](C)O2)[C@H](C)[C@@H](O[C@@H]2O[C@H](C)C[C@H](N(C)C)[C@H]2O)[C@](C)(O)C[C@@H](C)CN(C)[C@H](C)[C@@H](O)[C@]1(C)O | 1 (≈ 0.824 µM) | ≤ 0.125 | ≤ 0.125 | 2 (≈ 1.65 µM) | ≤ 0.125 | ≤ 0.125 | 2 (≈ 1.65 µM) | ≤ 0.125 | ≤ 0.125 | > 64 | 0.25 (≈ 0.206 µM) | ≤ 0.125 | 8 (≈ 6.59 µM) | 8 (≈ 6.59 µM) |
| CCCn1cc(C(=O)O)c(=O)c2cc(NCCOCCOCCC(=O)O[C@H]3[C@H](C)O[C@@H](O[C@H]4[C@H](C)[C@@H](O[C@@H]5O[C@H](C)C[C@H](N(C)C)[C@H]5O)[C@](C)(O)C[C@@H](C)CN(C)[C@H](C)[C@@H](O)[C@](C)(O)[C@@H](CC)OC(=O)[C@@H]4C)C[C@@]3(C)OC)c(Cl)cc21 | 0.25 (≈ 0.213 µM) | ≤ 0.125 | ≤ 0.125 | 0.25 (≈ 0.213 µM) | ≤ 0.125 | ≤ 0.125 | 32 (≈ 27.3 µM) | 1 (≈ 0.853 µM) | ≤ 0.125 | > 64 | ≤ 0.125 | 1 (≈ 0.853 µM) | 4 (≈ 3.41 µM) | 0.5 (≈ 0.427 µM) |
| CC[C@H]1OC(=O)[C@H](C)[C@@H](O[C@H]2C[C@@](C)(OC)[C@@H](OC(=O)CCOCCOc3ccc4c(c3)c(=O)c(C(=O)OC(C)C)cn4C3CC3)[C@H](C)O2)[C@H](C)[C@@H](O[C@@H]2O[C@H](C)C[C@H](N(C)C)[C@H]2O)[C@](C)(O)C[C@@H](C)CN(C)[C@H](C)[C@@H](O)[C@]1(C)O | 1 (≈ 0.882 µM) | ≤ 0.125 | ≤ 0.125 | 16 (≈ 14.1 µM) | ≤ 0.125 | ≤ 0.125 | 32 (≈ 28.2 µM) | ≤ 0.125 | ≤ 0.125 | > 64 | ≤ 0.125 | ≤ 0.125 | 4 (≈ 3.53 µM) | 2 (≈ 1.76 µM) |
| CC[C@H]1OC(=O)[C@H](C)[C@@H](O[C@H]2C[C@@](C)(OC)[C@@H](O)[C@H](C)O2)[C@H](C)[C@@H](O[C@@H]2O[C@H](C)C[C@H](N(C)C)[C@H]2O)[C@](C)(O)C[C@@H](C)CN(C)[C@H](C)[C@@H](O)[C@]1(C)O [AZITHROMYCIN] | 0.5 (≈ 0.668 µM) | ≤ 0.125 | ≤ 0.125 | 32 (≈ 42.7 µM) | 8 (≈ 10.7 µM) | 8 (≈ 10.7 µM) | > 64 | > 64 | 16 (≈ 21.4 µM) | > 64 | > 64 | > 64 | 1 (≈ 1.34 µM) | ≤ 0.125 |
| CC[C@H]1OC(=O)[C@H](C)[C@@H](O[C@H]2C[C@@](C)(OC)[C@@H](OC(=O)CCOCCNc3cc4c(=O)c(C(=O)OCCN5CCCC5)cn(C5CC5)c4cc3Cl)[C@H](C)O2)[C@H](C)[C@@H](O[C@@H]2O[C@H](C)C[C@H](N(C)C)[C@H]2O)[C@](C)(O)C[C@@H](C)CN(C)[C@H](C)[C@@H](O)[C@]1(C)O | 0.25 (≈ 0.204 µM) | ≤ 0.125 | ≤ 0.125 | ≤ 0.125 | ≤ 0.125 | ≤ 0.125 | 1 (≈ 0.818 µM) | ≤ 0.125 | ≤ 0.125 | > 64 | ≤ 0.125 | ≤ 0.125 | 4 (≈ 3.27 µM) | ≤ 0.125 |
| CC[C@H]1OC(=O)[C@H](C)[C@@H](O[C@H]2C[C@@](C)(OC)[C@@H](OC(=O)CCOCCOCCNc3cc4c(=O)c(C(=O)O)cn(C(C)C)c4cc3Cl)[C@H](C)O2)[C@H](C)[C@@H](O[C@@H]2O[C@H](C)C[C@H](N(C)C)[C@H]2O)[C@](C)(O)C[C@@H](C)CN(C)[C@H](C)[C@@H](O)[C@]1(C)O | ≤ 0.125 | ≤ 0.125 | ≤ 0.125 | ≤ 0.125 | ≤ 0.125 | ≤ 0.125 | 0.25 (≈ 0.213 µM) | 0.25 (≈ 0.213 µM) | ≤ 0.125 | 64 (≈ 54.6 µM) | ≤ 0.125 | 1 (≈ 0.853 µM) | 1 (≈ 0.853 µM) | 1 (≈ 0.853 µM) |
| CC[C@H]1OC(=O)[C@H](C)[C@@H](O[C@H]2C[C@@](C)(OC)[C@@H](OC(=O)CCOCCOCCNc3ccc4c(c3)c(=O)c(C(=O)O)cn4C3CC3)[C@H](C)O2)[C@H](C)[C@@H](O[C@@H]2O[C@H](C)C[C@H](N(C)C)[C@H]2O)[C@](C)(O)C[C@@H](C)CN(C)[C@H](C)[C@@H](O)[C@]1(C)O | ≤ 0.125 | ≤ 0.125 | ≤ 0.125 | ≤ 0.125 | ≤ 0.125 | ≤ 0.125 | 0.5 (≈ 0.44 µM) | ≤ 0.125 | ≤ 0.125 | 16 (≈ 14.1 µM) | ≤ 0.125 | ≤ 0.125 | 0.5 (≈ 0.44 µM) | 0.25 (≈ 0.22 µM) |
| CC[C@H]1OC(=O)[C@H](C)[C@@H](O[C@H]2C[C@@](C)(OC)[C@@H](OC(=O)CCOCCOCCNc3ccc4c(c3)c(=O)c(C(=O)O)cn4CC)[C@H](C)O2)[C@H](C)[C@@H](O[C@@H]2O[C@H](C)C[C@H](N(C)C)[C@H]2O)[C@](C)(O)C[C@@H](C)CN(C)[C@H](C)[C@@H](O)[C@]1(C)O | 0.25 (≈ 0.223 µM) | ≤ 0.125 | ≤ 0.125 | ≤ 0.125 | ≤ 0.125 | ≤ 0.125 | 0.25 (≈ 0.223 µM) | 1 (≈ 0.89 µM) | ≤ 0.125 | 64 (≈ 57 µM) | ≤ 0.125 | ≤ 0.125 | 2 (≈ 1.78 µM) | 2 (≈ 1.78 µM) |
| CC[C@H]1OC(=O)[C@H](C)[C@@H](O[C@H]2C[C@@](C)(OC)[C@@H](OC(=O)CCOCCOc3cc4c(=O)c(C(=O)OC(C)C)cn(C5CC5)c4cc3Cl)[C@H](C)O2)[C@H](C)[C@@H](O[C@@H]2O[C@H](C)C[C@H](N(C)C)[C@H]2O)[C@](C)(O)C[C@@H](C)CN(C)[C@H](C)[C@@H](O)[C@]1(C)O | 1 (≈ 0.856 µM) | ≤ 0.125 | ≤ 0.125 | 4 (≈ 3.42 µM) | ≤ 0.125 | ≤ 0.125 | 4 (≈ 3.42 µM) | 0.5 (≈ 0.428 µM) | ≤ 0.125 | > 64 | 0.25 (≈ 0.214 µM) | 0.5 (≈ 0.428 µM) | 2 (≈ 1.71 µM) | 0.5 (≈ 0.428 µM) |
| CC[C@H]1OC(=O)[C@H](C)[C@@H](O[C@H]2C[C@@](C)(OC)[C@@H](OC(=O)CCOCCOc3cc4c(=O)c(C(=O)O)cn(C5CC5)c4cc3Cl)[C@H](C)O2)[C@H](C)[C@@H](O[C@@H]2O[C@H](C)C[C@H](N(C)C)[C@H]2O)[C@](C)(O)C[C@@H](C)CN(C)[C@H](C)[C@@H](O)[C@]1(C)O | 0.25 (≈ 0.222 µM) | ≤ 0.125 | ≤ 0.125 | 0.5 (≈ 0.444 µM) | ≤ 0.125 | ≤ 0.125 | 0.5 (≈ 0.444 µM) | 0.25 (≈ 0.222 µM) | ≤ 0.125 | > 64 | 0.5 (≈ 0.444 µM) | 0.25 (≈ 0.222 µM) | 1 (≈ 0.887 µM) | 1 (≈ 0.887 µM) |
